For orientation: Ki means a measure of affinity in units of concentration, obtained from inhibition or displacement. The low end stands for tighter binding, the high end for weaker binding.

Numbering of substitutions follows the chain as printed. Where a SMILES comes first, the peptide text is derived from it. Bridges are numbered along the chain shown (N, C = ends).

This is an account of results in article PMC5908784, “Extracellular loops 2 and 3 of the calcitonin receptor selectively modify agonist binding and efficacy” (Biochemical Pharmacology, 2018).

Holding throughout (assay): Heterologous whole cell competition binding
Common to all, as to details: heterologous competition of 125I-sCT(8-32), whole cells, mean ± S.E.M., SEM

Assay [1] addresses T1, hCTR P360A (Homo sapiens, UniProt P30988, P360A).
T1 construct: expressed in transfected cells
T1 sequence (P30988 25-474 P360A): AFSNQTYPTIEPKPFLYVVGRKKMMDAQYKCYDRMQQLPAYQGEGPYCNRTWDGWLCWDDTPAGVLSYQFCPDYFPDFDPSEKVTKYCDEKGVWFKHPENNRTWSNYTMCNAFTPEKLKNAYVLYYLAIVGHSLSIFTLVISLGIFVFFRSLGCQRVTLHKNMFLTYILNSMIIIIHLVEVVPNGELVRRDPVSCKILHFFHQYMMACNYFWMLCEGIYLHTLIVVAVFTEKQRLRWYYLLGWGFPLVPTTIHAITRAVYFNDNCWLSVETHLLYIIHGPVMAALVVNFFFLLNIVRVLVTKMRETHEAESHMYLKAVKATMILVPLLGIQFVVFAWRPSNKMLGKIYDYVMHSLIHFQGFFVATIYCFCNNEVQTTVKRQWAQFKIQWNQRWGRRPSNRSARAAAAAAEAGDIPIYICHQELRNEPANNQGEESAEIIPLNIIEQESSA
In short, it runs like this: (§1)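 Overnight competition on intact cells; free ligand washed off; gamma counting. pKi via Cheng-Prusoff correction for radioligand occupancy.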

Assay [2] has as its target T2, hCTR T295A (Homo sapiens, UniProt P30988, T295A).
T2 construct: c-Myc (N); expressed in transfected cells
T2 sequence (P30988 25-474 T295A): T1 sequence (P30988 25-474 P360A) with T271A, A336P
Summed up:
as §1

The target in assay [3] is T3, hCTR V358A (Homo sapiens, UniProt P30988, V358A).
T3 construct: c-Myc (N); expressed in transfected cells
T3 sequence (P30988 25-474 V358A): T1 sequence (P30988 25-474 P360A) with V334A, A336P
In short, it runs like this: as §1

Assay [4] addresses T4, hCTR E294A (Homo sapiens, UniProt P30988, E294A).
T4 construct: c-Myc (N); expressed in transfected cells
T4 sequence (P30988 25-474 E294A): T1 sequence (P30988 25-474 P360A) with E270A, A336P
In short, it runs like this:
as §1

The target in assay [5] is T5, hCTR F356A (Homo sapiens, UniProt P30988, F356A).
T5 construct: c-Myc (N); expressed in transfected cells
T5 sequence (P30988 25-474 F356A): T1 sequence (P30988 25-474 P360A) with F332A, A336P
In short, it runs like this: as §1

`CSCC[C@H](NC(=O)CNC(=O)[C@H](CO)NC(=O)[C@H](Cc1ccccc1)NC(=O)[C@H](CCCNC(=N)N)NC(=O)[C@H](Cc1c[nH]cn1)NC(=O)[C@H](Cc1ccccc1)NC(=O)[C@H](CC(N)=O)NC(=O)[C@H](CC(N)=O)NC(=O)[C@H](CC(C)C)NC(=O)[C@H](CC(N)=O)NC(=O)[C@H](CCCNC(=N)N)NC(=O)[C@H](Cc1c[nH]c2ccccc12)NC(=O)[C@H](Cc1ccc(O)cc1)NC(=O)[C@H](C)NC(=O)[C@H](CO)NC(=O)[C@H](CC(C)C)NC(=O)[C@@H](NC(=O)[C@@H]1CSSC[C@H](N)C(=O)N[C@@H](CO)C(=O)N[C@@H](CC(N)=O)C(=O)N[C@@H](CC(C)C)C(=O)N[C@@H](CO)C(=O)N[C@@H]([C@@H](C)O)C(=O)N1)C(C)C)C(=O)NCC(=O)N[C@@H](Cc1ccccc1)C(=O)NCC(=O)N1CCC[C@H]1C(=O)N[C@@H](CCC(=O)O)C(=O)N[C@H](C(=O)N1CCC[C@H]1C(N)=O)[C@@H](C)O` [pCT] (H-CSNLSTCVLSAYWRNLNNFHRFSGMGFGPETP-NH2; disulfide 1-7): the Ki was 50.1 nM in assay [1]; 32.4 nM in assay [2]; 14.5 nM in assay [3]; 11.7 nM in assay [4]; 12 nM in assay [5].
